Each structure is given as a SMILES string.

Experiment [1] has as its system HeLa cells. The experiment in a line: In vitro cytotoxicity, MTT assay, HeLa. The experiment is classed as cell-based, human. As to conditions: HeLa (cervical carcinoma), 48 h continuous drug exposure. Here is the method:
(§1) All cell lines used in this study were purchased from the American Type Culture Collection (ATCC, United States). A549, MCF-7, and HeLa were grown in Dulbecco's modified Eagle's medium (containing 10% FBS in a humidified atmosphere of 5% CO2 at 37° C.). HCT116 cells were cultured in Eagle's minimal essential medium (MEM) containing non-essential amino acids, 1 mM sodium pyruvate, […] bovine insulin, and 10% FBS. Cells were trypsinized when sub-confluent from T25 flasks/60 mm dishes and seeded in 96-well plates. The synthesized test compounds were evaluated for their in vitro antiproliferative in four different human cancer cell lines. A protocol of 48 h continuous drug exposure was used, and a MTT cell proliferation assay was used to estimate cell viability or growth. The cell lines were grown in their respective media containing 10% fetal bovine serum and were seeded into 96-well microtiter plates in 200 μL, aliquots at plating densities depending on the doubling time of individual cell lines. The microtiter plates were incubated at 37° C., 5% CO2, 95% air, and 100% relative humidity for 24 h prior to addition of experimental drugs. Aliquots of 2 μL, of the test compounds were added to the wells already containing 198 μL, of cells, resulting in the required final drug concentrations. For each compound, four concentrations (1, 10, 100, and 1000 μM) were evaluated, and each was done in triplicate wells. Plates were incubated further for 48 h, and the assay was terminated by the addition of 10 μL, of 5% MTT and incubated for 60 min at 37° C. Later, the plates were air-dried. Bound stain was subsequently eluted with 100 μL, of DMSO, and the absorbance was read on an multimode plate reader (Tecan M200) at a wavelength of 560 nm. Percent growth was calculated on a plate by plate basis for test wells relative to control wells. The above determinations were repeated thrice. The growth inhibitory effects of the compounds were analyzed by generating dose response curves as a plot of the percentage surviving cells versus compound concentration. The sensitivity of the cancer cells to the test compound was expressed in terms of IC50, a value defined as the concentration of compound that produced 50% reduction as compared to the control absorbance. (A. S. Kumar, M. A. Reddy, N. Jain, C. Kishor, T. R. Murthy, D. Ramesh, B. Supriya, A. Addlagatta, S. V. Kalivendi, B. Sreedhar. Eur. J. Med. Chem. 60 (2013) 305-24).
(In general: Tetrazolium assays rely on reduction of a dye to a coloured formazan, in cell work by metabolically active cells.)

Experiment [2] relates to A549 cells. The experiment in a line: In vitro cytotoxicity, MTT assay, A549. As to conditions: A549 (non-small cell lung cancer), 48 h continuous drug exposure. Type of experiment: cell-based, human. Here is the method:
as §1

Experiment [3] relates to HCT116 cells. The experiment can be described thus: In vitro cytotoxicity, MTT assay, HCT116. The experiment is classed as cell-based, human. Particulars: 48 h continuous drug exposure. The protocol: as §1
The test system of experiment [4] is MCF-7 cells. The experiment in a line: In vitro cytotoxicity, MTT assay, MCF-7. The experiment is classed as cell-based, human. Particulars: 48 h continuous drug exposure. The protocol:
as §1

Experiment [5] has as its system A549, HeLa, MCF-7 and HCT116 cells. The experiment in a line: In vitro cytotoxicity, MTT assay, summary over all four cancer cell lines. Type of experiment: cell-based. Particulars: Homo sapiens, range over the group of compounds and the four cell lines, read-out: IC50 value range towards all the cancer cell lines. Here is the method: as §1
Setting [6] is: Homo sapiens, HCT-116, HCT116 (colon carcinoma).
Setting [7] is: Homo sapiens, MCF7, 48 h, MCF-7 (breast cancer).
Setting [8] is: Homo sapiens, MCF7, MCF-7 (breast cancer).

One may read the IC50 as the point on the concentration scale where inhibition reaches its midpoint. On to `COc1ccc(/C=C\c2cc(OC)c(OC)c(OC)c2)cc1OP(=O)(O)O` [Ca-4, Combretastatin, reference compound], for which the IC50 was 0.58 µM in experiment [1], 0.31 µM in experiment [2], 3.98 µM in experiment [3] (HCT116 (colon carcinoma)) and 0.58 µM in experiment [4] (MCF-7 (breast cancer)).

With `COc1ccc(/C=C\c2cc(OC)c(OC)c(OC)c2)cc1N/C=C\C(=O)c1ccc(OC(F)(F)F)cc1` [Compound 10o, (Z)-3-((2-methoxy-5-((Z)-3,4,5-trimethoxystyryl)phenyl)amino)-1-(4-(trifluoromethoxy)phenyl)prop-2-en-1-one], the IC50 in experiment [5] is 110 to 4680 nM; in experiment [1] (Homo sapiens) it was 0.26 µM; in experiment [2] (Homo sapiens) it was 2.69 µM; in experiment [3] (setting [6]) it was 2.95 µM; in experiment [4] (setting [7]), 1.32 µM.

For `COc1ccc(C(=O)/C=C\Nc2cc(/C=C\c3cc(OC)c(OC)c(OC)c3)ccc2OC)cc1O` [Compound 10q, (Z)-1-(3-hydroxy-4-methoxyphenyl)-3-((2-methoxy-5-((Z)-3,4,5-trimethoxystyryl)phenyl)amino)prop-2-en-1-one], the IC50 in experiment [5] was 110 to 4680 nM; in experiment [1] (Homo sapiens), 0.23 µM; in experiment [2] (Homo sapiens), 3.89 µM; in experiment [3] (setting [6]) it was 0.83 µM; in experiment [4] (setting [7]), 4.68 µM.

For `COc1ccc(/C=C\c2cc(OC)c(OC)c(OC)c2)cc1N/C=C\C(=O)c1ccc(OC)c([N+](=O)[O-])c1` [Compound 10t, (Z)-1-(4-methoxy-3-nitrophenyl)-3-((2-methoxy-5-((Z)-3,4,5-trimethoxystyryl)phenyl)amino)prop-2-en-1-one], the IC50 in experiment [5] was 110 to 4680 nM; in experiment [1] (Homo sapiens), 0.21 µM; in experiment [2] (Homo sapiens), 0.77 µM; in experiment [3] (setting [6]), 1.29 µM; in experiment [4] (setting [7]), 2 µM.

Turning to `COc1ccc(C(=O)/C=C\Nc2cc(/C=C\c3cc(OC)c(OC)c(OC)c3)ccc2OC)cc1N` [Compound 10u, (Z)-1-(3-amino-4-methoxyphenyl)-3-((2-methoxy-5-((Z)-3,4,5-trimethoxystyryl)phenyl)amino)prop-2-en-1-one], the IC50 in experiment [5] is 110 to 4680 nM; in experiment [1] (Homo sapiens), 0.52 µM; in experiment [2] (Homo sapiens) it was 2.4 µM; in experiment [3] (setting [6]) it was 0.77 µM; in experiment [4] (setting [8]) it was 0.25 µM.

With `COc1ccc(C=Cc2cc(OC)c(OC)c(OC)c2)cc1N/C=C\C(=O)c1c[nH]c2ccccc12` [Compound 10v, (Z)-1-(1H-indol-3-yl)-3-(2-methoxy-5-(3,4,5-trimethoxystyryl)phenylamino)prop-2-en-1-one], the IC50 in experiment [5] was 110 to 4680 nM; in experiment [1] (Homo sapiens), 0.53 µM; in experiment [2] (Homo sapiens) it was 0.17 µM; in experiment [3] (setting [6]) it was 0.33 µM; in experiment [4] (setting [7]), 0.11 µM.

On to `COc1ccc(C=Cc2cc(OC)c(OC)c(OC)c2)cc1N/C=C\C(=O)c1cn(C)c2ccccc12` [Compound 10w, (Z)-3-(2-methoxy-5-(3,4,5-trimethoxystyryl)phenylamino)-1-(1-methyl-1H-indol-3-yl)prop-2-en-1-one], for which the IC50 in experiment [5] is 110 to 4680 nM; in experiment [1] (Homo sapiens) it was 0.46 µM; in experiment [2] (Homo sapiens), 0.67 µM; in experiment [3] (setting [6]), 0.37 µM; in experiment [4] (setting [7]), 1.07 µM.

Regarding `COc1ccc(/C=C\c2cc(OC)c(OC)c(OC)c2)cc1N/C=C\C(=O)c1cc(OC)c(OC)c(OC)c1` [Compound 10x, (Z)-3-((2-methoxy-5-((Z)-3,4,5-trimethoxystyryl)phenyl)amino)-1-(3,4,5-trimethoxyphenyl)prop-2-en-1-one], the IC50 in experiment [5] is 110 to 4680 nM; in experiment [1] (Homo sapiens) it was 0.26 µM; in experiment [2] (Homo sapiens), 1.68 µM; in experiment [3] (setting [6]) it was 1.51 µM; in experiment [4] (setting [7]), 0.27 µM.

For `COc1ccc(/C=C\c2cc(OC)c(OC)c(OC)c2)cc1N/C=C\C(=O)c1cc(OC)c(OC)c(OC)c1Br` [Compound 10y, (Z)-1-(2-bromo-3,4,5-trimethoxyphenyl)-3-((2-methoxy-5-((Z)-3,4,5-trimethoxystyryl)phenyl)amino)prop-2-en-1-one], the IC50 is 110 to 4680 nM in experiment [5]; 0.25 µM in experiment [1] (Homo sapiens); 3.51 µM in experiment [2] (Homo sapiens); 3.98 µM in experiment [3] (setting [6]); 2.95 µM in experiment [4] (setting [7]).

On to `COc1cc(/C=C\c2cc(OC)c(OC)c(OC)c2)cc(N/C=C\C(=O)c2ccc(OC(F)(F)F)cc2)c1OC` [Compound 11o, (Z)-3-((2,3-dimethoxy-5-((Z)-3,4,5-trimethoxystyryl)phenyl)amino)-1-(4-(trifluoromethoxy)phenyl)prop-2-en-1-one], for which the IC50 in experiment [5] is 120 to 5750 nM; in experiment [1] (Homo sapiens), 1.86 µM; in experiment [2] (Homo sapiens) it was 0.21 µM; in experiment [3] (setting [6]) it was 7.08 µM; in experiment [4] (setting [7]) it was 5.7 µM; in experiment [4] (MCF-7 (breast cancer)), 5.75 µM.

Regarding `COc1ccc(C(=O)/C=C\Nc2cc(/C=C\c3cc(OC)c(OC)c(OC)c3)cc(OC)c2OC)cc1O` [Compound 11q, (Z)-3-((2,3-dimethoxy-5-((Z)-3,4,5-trimethoxystyryl)phenyl)amino)-1-(3-hydroxy-4-methoxyphenyl)prop-2-en-1-one], the IC50 in experiment [5] is 120 to 5750 nM; in experiment [1] (Homo sapiens) it was 1.91 µM; in experiment [2] (Homo sapiens), 0.32 µM; in experiment [3] (setting [6]) it was 3.24 µM; in experiment [4] (setting [7]), 2.09 µM.

For `COc1ccc(C(=O)/C=C\Nc2cc(/C=C\c3cc(OC)c(OC)c(OC)c3)cc(OC)c2OC)cc1[N+](=O)[O-]` [Compound 11t, (Z)-3-((2,3-dimethoxy-5-((Z)-3,4,5-trimethoxystyryl)phenyl)amino)-1-(4-methoxy-3-nitrophenyl)prop-2-en-1-one], the IC50 in experiment [5] is 120 to 5750 nM; in experiment [1] (Homo sapiens), 1.2 µM; in experiment [2] (Homo sapiens), 0.15 µM; in experiment [3] (setting [6]), 4.79 µM; in experiment [4] (setting [7]), 1.55 µM.

As for `COc1ccc(C(=O)/C=C\Nc2cc(/C=C\c3cc(OC)c(OC)c(OC)c3)cc(OC)c2OC)cc1N` [Compound 11u, (Z)-1-(3-amino-4-methoxyphenyl)-3-((2,3-dimethoxy-5-((Z)-3,4,5-trimethoxystyryl)phenyl)amino)prop-2-en-1-one], the IC50 in experiment [5] was 120 to 5750 nM; in experiment [1] (Homo sapiens), 4.27 µM; in experiment [2] (Homo sapiens), 0.12 µM; in experiment [3] (setting [6]) it was 7.59 µM; in experiment [4] (setting [7]), 5.25 µM.

Consider `COc1cc(C=Cc2cc(OC)c(OC)c(OC)c2)cc(N/C=C\C(=O)c2c[nH]c3ccccc23)c1OC` [Compound 11v, (Z)-3-(2,3-dimethoxy-5-(3,4,5-trimethoxystyryl)phenylamino)-1-(1H-indol-3-yl)prop-2-en-1-one], for which the IC50 in experiment [5] was 120 to 5750 nM; in experiment [1] (Homo sapiens) it was 0.67 µM; in experiment [2] (Homo sapiens) it was 0.56 µM; in experiment [3] (setting [6]), 1.48 µM; in experiment [4] (setting [8]), 3.02 µM.

`COc1cc(C=Cc2cc(OC)c(OC)c(OC)c2)cc(N/C=C\C(=O)c2cn(C)c3ccccc23)c1OC` [Compound 11w, (Z)-3-(2,3-dimethoxy-5-(3,4,5-trimethoxystyryl)phenylamino)-1-(1-methyl-1H-indol-3-yl)prop-2-en-1-one]: the IC50 in experiment [5] is 120 to 5750 nM; in experiment [1] (Homo sapiens), 5.89 µM; in experiment [2] (Homo sapiens), 0.14 µM; in experiment [3] (setting [6]), 1.95 µM; in experiment [4] (setting [7]), 3.39 µM.

With `COc1cc(/C=C\c2cc(OC)c(OC)c(OC)c2)cc(N/C=C\C(=O)c2cc(OC)c(OC)c(OC)c2)c1OC` [Compound 11x, (Z)-3-((2,3-dimethoxy-5-((Z)-3,4,5-trimethoxystyryl)phenyl)amino)-1-(3,4,5-trimethoxyphenyl)prop-2-en-1-one], the IC50 is 120 to 5750 nM in experiment [5]; 3.72 µM in experiment [1] (Homo sapiens); 3.33 µM in experiment [2] (Homo sapiens); 0.28 µM in experiment [3] (setting [6]); 7.08 µM in experiment [4] (setting [7]).

`COc1cc(/C=C\c2cc(OC)c(OC)c(OC)c2)cc(N/C=C\C(=O)c2cc(OC)c(OC)c(OC)c2Br)c1OC` [Compound 11y, (Z)-1-(2-bromo-3,4,5-trimethoxyphenyl)-3-((2,3-dimethoxy-5-((Z)-3,4,5-trimethoxystyryl)phenyl)amino)prop-2-en-1-one]: the IC50 in experiment [5] was 120 to 5750 nM; in experiment [1] (Homo sapiens) it was 1.58 µM; in experiment [2] (Homo sapiens) it was 0.28 µM; in experiment [3] (setting [6]), 0.3 µM; in experiment [4] (setting [7]), 5.37 µM.

These data come from US9487482B2, “3,4,5-trimethoxystyrylarylaminopropenones as potential anticancer agents” (Council of Scientific and Industrial Research, priority 2014, dated 2016).
